Data set [1] has as its target MtTrxR (Mycobacterium tuberculosis thioredoxin reductase) (Mycobacterium tuberculosis, UniProt P9WHH1). As to the kind of experiment: MtTrxR activity assay according to Lu et al. (DTNB assay). It counts as biochemical. The conditions noted are these: error range = standard deviation. Here is the method:
The compounds according to the invention show good inhibitory activity towards MtTrxR. In a preferred embodiment, the compounds according to the invention have an IC50 value according to Lu et al. from 0.10 to 10.00 μM. Methods for determining the IC50 value according to Lu et al. are known to those skilled in the art. Reference is made in this respect to J. Lu, A. Vlamis-Gardikas, K. Kandasamy, R. Zhao, T. N. Gustafsson, L. Engstrand, S. Hoffner, L. Engman, A. Holmgren, FASEB J. 2013, 27, 1394-1403.
(§1) A biochemical evaluation of the inhibitory activity (i.e. the IC50 value) of the compounds obtained towards MtTrxR by means of an activity assay according to Lu et al. (error range indicated by the standard deviation) was conducted. The testing of the potential inhibitors against MtTrxR was performed according to the description of Lu et al. Furthermore, MIC50 values (generic minimum inhibitory concentration) of certain compounds were measured with the BD BACTEC™ MGIT™ system: […]

The format of data set [2] is in vitro ADME. As for the experimental part: Selected compounds were investigated in terms of their permeability with the aid of the PAMPA assay (Parallel Artificial Membrane Permeation Assay). The permeability of the compounds across an artificial membrane of phospholipids was tested in a filter plate. Since a significant difference existed between the artificial membrane and the mycobacterial cell wall, the values should only be used as a measure to be able to evaluate the permeability of the compounds with respect to each other. For this purpose, the distribution between a donor and acceptor chamber without membrane was determined as the reference value (100% flux), in which the concentration of the compounds in the chambers was determined spectrophotometrically. Subsequently, the permeability of compounds 1, 8, 63 and 68 across the membrane used was determined. The PAMPA flux [%] value was 12.60 for compound 1, 29.70 for compound 8, 53.60 for compound 63, and 41.00 for compound 68.

Data set [3] has as its system Mycobacterium tuberculosis. As to the kind of experiment: Antimycobacterial activity (FIG. 1). Type of data set: cell-based. The text has this: FIG. 1 is directed to the antimycobacterial activity of compounds 2, 8 and 68 according to the invention.
Data set [4] relates to Mycobacterium tuberculosis. Description: MIC50 measured with the BD BACTEC MGIT system. The conditions noted are these: read-out: MIC50 [μM] (μG/mL). Type of data set: cell-based. Here is the method: as §1
The next data set deals with human macrophages. It counts as cell-based. The text has this: FIG. 3 is directed to the cytotoxic activity of compound 68 according to the invention against human macrophages.
Data set [5] relates to Mycobacterium tuberculosis strain H37Rv in infected human macrophages. As to the kind of experiment: Antimycobacterial activity in infected human macrophages (FIG. 2). Type of data set: cell-based. From the text:
FIG. 2 is directed to the antimycobacterial activity of compound 68 according to the invention against Mycobacterium tuberculosis strain H37Rv in infected human macrophages.

Each structure is given as a SMILES string. In brackets after ≈: the same amount, converted by molar mass. Several values for one entry are separate records, joined by “and”; a condition that tells them apart may be missing. Equal entries are not always repeated. Bounds are passed on as bounds.

The term IC50 denotes the point on the concentration scale where inhibition reaches its midpoint.

Sequence of MtTrxR (Mycobacterium tuberculosis thioredoxin reductase) (P9WHH1 whole entry): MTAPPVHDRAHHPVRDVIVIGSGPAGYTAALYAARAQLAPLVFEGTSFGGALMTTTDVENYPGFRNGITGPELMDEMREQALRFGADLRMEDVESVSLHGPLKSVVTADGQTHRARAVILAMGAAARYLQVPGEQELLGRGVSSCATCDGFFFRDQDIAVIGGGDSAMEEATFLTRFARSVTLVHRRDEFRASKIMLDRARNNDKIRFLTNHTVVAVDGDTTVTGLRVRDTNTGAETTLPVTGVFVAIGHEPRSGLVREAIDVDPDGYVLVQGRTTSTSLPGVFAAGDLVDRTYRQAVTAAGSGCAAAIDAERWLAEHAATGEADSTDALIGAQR

As to `COc1ccc2nc(C)cc(Nc3ccc(O)cc3)c2c1` [Compound 1, 4-((6-Methoxy-2-methylquinolin-4-yl)amino)phenol, reference compound], the IC50 in data set [1] was 11.5 ± 1.52 µM. In addition, the “PAMPA flux [%]” value in data set [2] stood at 12.60%.

With `COc1ccc2nc(C)cc(Nc3ccc(S(=O)(=O)c4ccc(Nc5ccncc5)cc4)cc3)c2c1` [Compound 2, 6-methoxy-2-methyl-N-(4-((4-(pyridin-4-ylamino)phenyl)sulfonyl)phenyl)quinolin-4-amine], the antimycobacterial activity entry in data set [3] was “concentration-dependent antimycobacterial activity”. Further, the MIC50 in data set [4] was in the range of 8 to 32 µM (≈ 3.97 to 15.9 µg/mL). The compound also registered a half-maximal inhibitory concentration (IC50) in data set [1] of 0.25 ± 0.04 µM.

Take `COc1ccc2nc(C)cc(Nc3ccc(Cc4ccc(N)cc4)cc3)c2c1` [Compound 8, N-(4-(4-aminobenzyl)phenyl)-6-methoxy-2-methylquinolin-4-amine]: the antimycobacterial activity result in data set [3] is “concentration-dependent antimycobacterial activity”. Besides, the MIC50 in data set [4] lay in the range of 4 to 8 µM (≈ 1.48 to 2.96 µg/mL). The same compound showed a concentration for half-maximal inhibition (IC50) in data set [1] of 1.8 µM. In addition, the “PAMPA flux [%]” value in data set [2] was determined as 29.70%.

In data set [1], `COc1ccc2nc(C)cc(Nc3ccc(S(=O)(=O)c4ccc(N)cc4)cc3)c2c1` [Compound 9, N-(4-((4-aminophenyl)sulfonyl)phenyl)-6-methoxy-2-methylquinolin-4-amine] registered a half-inhibitory concentration (IC50) of 5.21 ± 0.24 µM.

The compound `COc1ccc2nc(C)cc(Nc3ccc(S(=O)(=O)c4ccc(NC(C)=O)cc4)cc3)c2c1` [Compound 10, N-(4-((4-((6-methoxy-2-methylquinolin-4-yl)amino)phenyl)sulfonyl)phenyl)acetamide] returned a half-inhibitory concentration (IC50) in data set [1] of 3.59 ± 1.95 µM.

Regarding `COc1ccc2nc(C)cc(Nc3ccc(S(=O)(=O)c4ccc(Nc5ccncn5)cc4)cc3)c2c1` [Compound 24, 6-methoxy-2-methyl-N-(4-((4-(pyrimidin-4-yl-amino)phenyl)sulfonyl)phenyl)quinolin-4-amine], the MIC50 in data set [4] is 8 to 32 µM (≈ 3.98 to 15.9 µg/mL). In data set [1], this compound had an IC50 of 0.51 ± 0.04 µM.

In data set [1], `COc1ccc2nc(C)cc(Nc3ccc(S(=O)(=O)c4ccc(Nc5cc(C(C)(C)C)n[nH]5)cc4)cc3)c2c1` [Compound 25, N-(4-((4-((3-(tert-butyl)-1H-pyrazol-5-yl)amino)phenyl)sulfonyl)phenyl)-6methoxy-2-methylquinolin-4-amine] returned a concentration for half-maximal inhibition (IC50) of 9.1 ± 0.3 µM.

In the case of `COc1ccc(Nc2ccc(S(=O)(=O)c3ccc(Nc4cc(C)nc5ccc(OC)cc45)cc3)cc2)cc1` [Compound 26, 6-methoxy-N-(4-((4-((4-methoxyphenyl)amino)phenyl)sulfonyl)phenyl)-2-methylquinolin-4-amine], in data set [4], the MIC50 lay within 8 to 32 µM (≈ 4.21 to 16.8 µg/mL). The IC50 in data set [1] was determined as 1.9 ± 0.8 µM.

Consider `COC(=O)c1ccc(Nc2ccc(S(=O)(=O)c3ccc(Nc4cc(C)nc5ccc(OC)cc45)cc3)cc2)cc1` [Compound 27, methyl-4-((4-((4-((6-methoxy-2-methylquinolin-4-yl)amino)phenyl)sulfonyl)phenyl)amino) benzoate], for which, in data set [1], inhibition was half-maximal at 4.8 ± 1.6 µM (IC50).

On to `COc1ccc2nc(C)cc(Nc3ccc(C(=O)c4ccc(Nc5ccncc5)cc4)cc3)c2c1` [Compound 45, (4-((6-methoxy-2-methylquinolin-4-yl)amino)phenyl)(4-(pyridin-4-yl-amino)phenyl)methanone], for which the MIC50 in data set [4] was over 32 µM. This compound also returned an IC50 in data set [1] of 1.04 ± 0.2 µM.

Turning to `COc1ccc2nc(C)cc(Nc3ccc(Cc4ccc(Nc5ccncc5)cc4)cc3)c2c1` [Compound 63, 6-methoxy-2-methyl-N-(4-(4-(pyridin-4-ylamino)benzyl)phenyl)quinolin-4-amine], the MIC50 in data set [4] was 8 to 32 µM (≈ 3.57 to 14.3 µg/mL). Besides, in data set [1], the IC50 is 5.64 µM and 4.7 µM. The “PAMPA flux [%]” value in data set [2] is 53.60%.

On to `COc1ccc2nc(C)cc(Nc3ccc(Cc4ccc(Nc5ccncn5)cc4)cc3)c2c1` [Compound 68, 6-methoxy-2-methyl-N-(4-(4-(pyrimidin-4-ylamino)benzyl)phenyl)quinolin-4-amine], for which, in the data set on human macrophages, the cytotoxicity towards macrophages result is listed as “without being toxic”. Further, in data set [3], the antimycobacterial activity result is recorded as “concentration-dependent antimycobacterial activity”. Besides, the “antimycobacterial activity in infected human macrophages” value in data set [5] is reported as “concentration-dependent antimycobacterial activity”. In addition, in data set [4], the MIC50 lay within 2 to 8 µM (≈ 0.895 to 3.58 µg/mL). Further, the IC50 in data set [1] was 2.03 µM and 1.7 µM. The “PAMPA flux [%]” value in data set [2] came out at 41.00%.

The values are drawn from patent US11078185B2, “Mycobacterium tuberculosis—thioredoxin reductase inhibitor as an antitubercular agent” (Technische Universität Dortmund, priority 2017, dated 2021).
